Data taken from patent US8420012B2, “Use of monochlorourea to treat industrial waters” (Hercules Incorporated, priority 2009, dated 2013).

Assays:
[1] = Stability in the presence of chlorine demand (0.1× nutrient broth), total chlorine by Hach DPD; format: physicochemical; conditions: 72 h, 5 ppm chlorine
Staphylococcus warneri = assay: Log reduction in populations of Staphylococcus warneri (Example 9); format: cell-based; conditions: S. warneri, 1.5 ppm, average of two
Method: (§1) N-chloro-N,N′-bishydroxymethylurea can be synthesized in the same manner as N-chloro-N,N′-dimethylurea. The bishydroxyurea (1.0 g, 8.33 mmol) was added to methanol (60 mL) in a 250 mL round bottom flask equipped with a magnetic stir bar without cooling. Another aliquot of methanol (20 mL) was added to a small vial. T-butyl hypochlorite (0.75 mL, 6.66 mmol) was diluted in the vial with methanol, and this solution was subsequently added to the urea solution over a period of less than five minutes. The combined solution was stirred for up to another two hours. The solvent was removed in vacuo, resulting in a colorless and transparent oil that solidified upon prolonged standing. The solid was characterized by ^1H NMR which indicated it was 20-30% N-chloro-N,N′-bishydroxymethylurea.

[2] = Stability in the presence of chlorine demand (0.1× nutrient broth), total chlorine by Hach DPD; format: physicochemical; conditions: 5 ppm chlorine
Method: This can be seen in Table 4 below. 20 mL aliquots of a 0.1× nutrient broth were used and the active species added such that the initial concentration of each was equivalent to 5 ppm chlorine as measured by the Hach. To prepare the nutrient broth Difco Nutrient Broth (8 grams) was dissolved in 1 L of deionized water, and subsequently diluted to 0.1× of the initial concentration prior to being autoclaved at 121° C. for 15 minutes. 100 mL solutions of each of the actives were made, and the concentration was measured using standard Hach test procedures on a BetzDearborn DR 2010 Spectrophotometer. At each time point a 1:10 dilution of the solution in DI water was made and placed in the spectrophotometer cell. Hach Permachem DPD Total Chlorine Reagent was added and the cell was placed into the spectrophotometer. The ppm of Cl2 was measured at 0, 1, 3, 6, 24, and 48 hours. A fresh dilution was made at each time point, if necessary, and the bottles of solution were placed in a shaking incubator at 37° C. in between runs. Dimethyl monochlorourea is notated as DMCU. Bis-hydroxymethyl chlorourea is BHMCU.

Pseudomonas aeruginosa [3] = assay: Log reduction in populations of Pseudomonas aeruginosa (Example 9); format: cell-based; conditions: P. aeruginosa, 0.3 ppm, average of two
Method: as §1

Pseudomonas aeruginosa [4] = assay: Viable cell counts of P. aeruginosa in PBS after 60 minutes exposure to biocide (Example 6); format: cell-based; conditions: average of three
Method: The efficacy of monochlorourea as a biocide, as synthesized in Example 1, was tested against the bacterium Pseudomonas aeruginosa. The Hach DPD chlorine test (Hach Company, Loveland, Colo.) was used to measure the total available chlorine concentrations of each biocide tested. Concentrations are reported in units of milligrams per liter as Cl2. P. aeruginosa was grown overnight in Trypticase Soy Broth at 37° C. The culture was split into aliquots of equal volume, suspended in physiologically buffered saline (PBS). In this example, the cultures were exposed to […], 5.0 mg/L, 10.0 mg/L, and 15.0 mg/L of biocide for 60 minutes. The cultures were then evaluated by measuring viable cell counts after exposure to the biocides.

[5] = Free vs. total chlorine (Hach DPD) of 1000 ppm solutions in synthetic hard water; format: physicochemical; conditions: synthetic hard water 250 ppm hardness, 35° C.
Method: Differences exist between monochlorourea and sodium hypochlorite, namely, sodium hypochlorite is a free chlorine generating biocide while monochlorourea is not. Free and total chlorine are measured using the DPD reagents from the Hach Company. The test is a colorimetric test in which more intense color development results as more oxidizing chlorine is present in the sample. The rate at which the dye reacts with the oxidizing chemical depends on whether the chlorine is free or bound. Total chlorine includes both free and bound chlorine.
The rate at which the dye reacts with total chlorine is accelerated by the addition of iodide to the test. This differentiates the free and total chlorine. The iodide reacts rapidly with bound oxidizing chlorine to form iodine and chloride. The iodine, a free oxidizing halogen, reacts very rapidly with the DPD dye.
One thousand ppm (as total Cl2) solutions of monochlorourea and sodium hypochlorite were prepared in synthetic hard water with 250 ppm hardness. Total and free chlorine readings were taken at 0 minutes, 30 minutes, 2 hours, and 4 hours. Untreated hard water solutions were used as blanks. The samples were stored at 35° C.+/−2° C. with mild stirring. pH values are provided as a reference points for the conditions of the chlorine species at the various test times.
Table 3 compares duplicate samples of sodium hypochlorite and monochlorourea. Significant differences exist between the free and total chlorine values of these chemicals. The release of free chlorine from monochlorourea is an energetically unfavorable reaction. Monochlorourea is a combined chlorine species that functions to kill bacteria not as a donor of free chlorine, but as a biocide itself.
Made-up 1 Liter sample of synthetic hard water with 250 ppm hardness.
Took 100 mL aliquots and set up duplicate samples of biocides at least 1,000 ppm based on total Chlorine readings.
Monitored pH, free chlorine and total chlorines at timed intervals of—0 min, 30 min, 2 hours, and 4 hours,
Monitored un-treated (blank) hard water at time 0 to serve as baseline.
Between sampling stored all samples in 35° C.+/−2° C. Heater/shaker with mild stirring.

P. aeruginosa = assay: Viability of P. aeruginosa inoculated in paper mill process water, plated after 60 minutes; format: cell-based, Pseudomonas aeruginosa; conditions: papermill process water, average of three
Method: Paper mill process water samples were collected from a paper mill producing super calendered paper Samples were inoculated with P. aeruginosa, and then dosed with monochlorourea and sodium hypochlorite and plated after 60 minutes.

[6] = Effect of pH on stability of monochlorourea in D2O by 13C NMR; format: physicochemical
Excerpt: The effect of pH on the stability of monochlorourea was significant. Carbon 13 labeled urea was used to examine the stability of the products overnight in D2O. […] However, completely acidifying all the solutions to a pH of 2.5 did have a significant effect on both the yield and the stability of the product.

[7] = Time = 2 hours, listed as MCU-1
[8] = Time = 2 hours, listed as MCU-2
[9] = Time = 4 hours, listed as MCU-1
[10] = Time = 4 hours, listed as MCU-2

SMILES: O=C(NCO)N(Cl)CO [BHMCU, N-chloro-N,N′-bishydroxymethylurea]
- Stability: total chlorine remaining relative to initial [1]: 3%
- Log Reduction (Staphylococcus warneri; 1 hr exposure): 6.37
- Log Reduction (Staphylococcus warneri; 2 hr exposure): 6.52
- Stability: total chlorine remaining relative to initial ([2]; 0 h): 100%
- Stability: total chlorine remaining relative to initial ([2]; 1 h): 70%
- Stability: total chlorine remaining relative to initial ([2]; 3 h): 49%
- Stability: total chlorine remaining relative to initial ([2]; 6 h): 38%
- Log Reduction (Pseudomonas aeruginosa [3]; 1 hr exposure): 3.63
- Log Reduction (Pseudomonas aeruginosa [3]; 2 hr exposure): 6.98

SMILES: NC(=O)NCl [MCU, N-chlorourea]
- log10 of viable cfu/mL remaining after exposure (Pseudomonas aeruginosa [4]; 5.0 mg/L as Cl2, 60 minutes): 4.0 log10 cfu/mL
- log10 of viable cfu/mL remaining after exposure (Pseudomonas aeruginosa [4]; 10.0 mg/L as Cl2, 60 minutes): 2.7 log10 cfu/mL
- log10 of viable cfu/mL remaining after exposure (Pseudomonas aeruginosa [4]; 15.0 mg/L as Cl2, 60 minutes): 2.3 log10 cfu/mL
- Free Cl ([5]; Time = 0): 0 ppm
- Tot Cl ([5]; Time = 0, listed as MCU-1): 1620 ppm
- Tot Cl ([5]; Time = 0, listed as MCU-2): 1190 ppm
- Free Cl ([5]; Time = 30 min, listed as MCU-1): 10 ppm
- Tot Cl ([5]; Time = 30 min, listed as MCU-1): 1500 ppm
- Free Cl ([5]; Time = 30 min, listed as MCU-2): 20 ppm
- Tot Cl ([5]; Time = 30 min, listed as MCU-2): 1210 ppm
- Free Cl [5, 7]: 10 ppm
- Tot Cl [5, 7]: 1490 ppm
- Free Cl [5, 8]: 30 ppm
- Tot Cl [5, 8]: 1120 ppm
- Free Cl [5, 9]: 10 ppm
- Tot Cl [5, 9]: 1230 ppm
- Free Cl [5, 10]: 20 ppm
- Tot Cl [5, 10]: 1000 ppm
- log10 of viable cfu/mL (P. aeruginosa; 1.0 mg/l): 9.9 log10 cfu/mL
- log10 of viable cfu/mL (P. aeruginosa; 3.0 mg/l): 4.3 log10 cfu/mL
- log10 of viable cfu/mL (P. aeruginosa; 5.0 mg/l): 3.2 log10 cfu/mL
- log10 of viable cfu/mL (P. aeruginosa; 10.0 mg/l): 3.1 log10 cfu/mL
- Stability by 13C NMR ([6]; acidic conditions (pH of 2.5), overnight): no indication by ^13C NMR of any decomposition
- Stability by 13C NMR ([6]; basic conditions, 12 hours): no peak in the ^13C NMR from chlorourea could be detected
